Drawing on US7700604B2, “Hydantoin derivatives as metalloproteinase inhibitors” (AstraZeneca AB, priority 2004, dated 2010), this text covers IC50 for three compounds.

Common to all, as to format: biochemical
For test [1], the target named is T1, Recombinant human MMP12 catalytic domain (Homo sapiens, UniProt P39900).
T1 construct: Recombinant human MMP12 catalytic domain; made in house
As to the kind of experiment: Isolated enzyme assay MMP12 (fluorogenic substrate). Particulars: substrate Mca-Pro-Cha-Gly-Nva-His-Ala-Dpa-NH2 10 μM, 60 minutes at room temperature, pH 7.3, read-out: hMMP12 IC50. Here is the method:
Recombinant human MMP12 catalytic domain may be expressed and purified as described by Parkar A. A. et al, (2000), Protein Expression and Purification, 20, 152. The purified enzyme can be used to monitor inhibitors of activity as follows: MMP12 (50 ng/ml final concentration) is incubated for 60 minutes at room temperature with the synthetic substrate Mca-Pro-Cha-Gly-Nva-His-Ala-Dpa-NH2 (10 μM) in assay buffer (0.1M “Tris-HCl” (trade mark) buffer, pH 7.3 containing 0.1M NaCl, 20 mM CaCl2, 0.020 mM ZnCl and 0.05% (w/v) “Brij 35” (trade mark) detergent) in the presence (10 concentrations) or absence of inhibitors. Activity is determined by measuring the fluorescence at λex 320 nm and λem 405 nm. Percent inhibition is calculated as follows: % Inhibition is equal to the [Fluorescenceplus inhibitor−Fluorescencebackground] divided by the [Fluorescenceminus inhibitor−Fluorescencebackground]. MMP8

The target of test [2] is T2, Recombinant human MMP14 catalytic domain (Homo sapiens, UniProt P50281).
T2 construct: Recombinant human MMP14 catalytic domain; made in house
As to the kind of experiment: Isolated enzyme assay MMP14 (fluorogenic substrate). Particulars: substrate Mca-Pro-Cha-Gly-Nva-His-Ala-Dpa-NH2 10 μM, 60 minutes at room temperature, pH 7.5, read-out: hMMP14 IC50. The method, then: Recombinant human MMP14 catalytic domain may be expressed and purified as described by Parkar A. A. et al, (2000), Protein Expression and Purification, 20, 152. The purified enzyme can be used to monitor inhibitors of activity as follows: MMP14 (10 ng/ml final concentration) is incubated for 60 minutes at room temperature with the synthetic substrate Mca-Pro-Cha-Gly-Nva-His-Ala-Dpa-NH2 (10 μM) in assay buffer (0.1M “Tris-HCl” (trade mark) buffer, pH 7.5 containing 0.1M NaCl, 20 mM CaCl2, 0.020 mM ZnCl and 0.05% (w/v) “Brij 35” (trade mark) detergent) in the presence (5 concentrations) or absence of inhibitors. Activity is determined by measuring the fluorescence at λex 320 nm and λem 405 nm. Percent inhibition is calculated as follows: % Inhibition is equal to the [Fluorescenceplus inhibitor−Fluorescencebackground] divided by the [Fluorescenceminus inhibitor−Fluorescencebackground].

The target in test [3] is T3, Recombinant human MMP9 catalytic domain (Homo sapiens, UniProt P14780).
T3 sequence (P14780 with tags, fused parts or gaps DEL216-390): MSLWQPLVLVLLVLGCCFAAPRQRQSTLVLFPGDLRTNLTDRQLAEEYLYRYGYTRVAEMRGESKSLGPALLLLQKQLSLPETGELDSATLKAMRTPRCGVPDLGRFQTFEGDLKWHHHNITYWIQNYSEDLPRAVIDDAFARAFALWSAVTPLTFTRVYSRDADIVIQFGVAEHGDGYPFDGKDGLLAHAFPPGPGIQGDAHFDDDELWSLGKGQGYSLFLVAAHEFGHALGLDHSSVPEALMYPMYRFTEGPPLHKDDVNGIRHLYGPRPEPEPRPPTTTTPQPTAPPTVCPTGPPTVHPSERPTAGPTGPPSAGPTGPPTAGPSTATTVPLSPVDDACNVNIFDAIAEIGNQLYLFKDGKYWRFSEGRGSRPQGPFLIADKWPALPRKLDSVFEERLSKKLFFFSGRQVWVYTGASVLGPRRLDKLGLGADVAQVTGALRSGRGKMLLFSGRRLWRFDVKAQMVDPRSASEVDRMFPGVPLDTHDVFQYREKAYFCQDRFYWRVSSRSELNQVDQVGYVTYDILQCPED
As to the kind of experiment: Isolated enzyme assay MMP9 (fluorogenic substrate). Particulars: substrate Mca-Pro-Cha-Gly-Nva-His-Ala-Dpa-NH2 5 μM, 30 minutes at RT, pH 7.3, read-out: hMMP9 IC50. Here is the method:
Recombinant human MMP9 catalytic domain was expressed and then purified by Zn chelate column chromatography followed by hydroxamate affinity column chromatography. The enzyme can be used to monitor inhibitors of activity as follows: MMP9 (5 ng/ml final concentration) is incubated for 30 minutes at RT with the synthetic substrate Mca-Pro-Cha-Gly-Nva-His-Ala-Dpa-NH2 (5 μM) in assay buffer (0.1M “Tris-HCl” (trade mark) buffer, pH 7.3 containing 0.1M NaCl, 20 mM CaCl2, 0.020 mM ZnCl and 0.05% (w/v) “Brij 35” (trade mark) detergent) in the presence (10 concentrations) or absence of inhibitors. Activity is determined by measuring the fluorescence at λex 320 nm and λem 405 nm. Percent inhibition is calculated as follows: % Inhibition is equal to the [Fluorescenceplus inhibitor−Fluorescencebackgound] divided by the [Fluorescenceminus inhibitor−Fluorescencebackground]. […]

Molecules are shown by their SMILES. Some results are limits rather than exact numbers.

T1 sequence (P39900 106-263 limits assumed): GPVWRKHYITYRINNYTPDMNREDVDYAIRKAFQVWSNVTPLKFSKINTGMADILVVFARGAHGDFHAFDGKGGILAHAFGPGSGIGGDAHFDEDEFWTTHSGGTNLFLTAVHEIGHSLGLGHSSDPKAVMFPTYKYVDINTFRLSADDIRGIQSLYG

A word on the IC50: it is the concentration that gives 50% inhibition. As to `C[C@]1(CS(=O)(=O)N2CCc3cc(-c4ccc(Cl)cc4)ncc3C2)NC(=O)NC1=O` [Example 5, (5S)-5-({[6-(4-Chlorophenyl)-3,4-dihydro-2,7-naphthyridin-2(1H)-yl]sulfonyl}methyl)-5-methylimidazolidine-2,4-dione], the values for the IC50 in test [1], in test [2] and in test [3] were 7 nM, 1990 nM and 8.3 nM, respectively.

As to `C[C@]1(CS(=O)(=O)N2CCc3cc(-c4cnc(C(F)(F)F)nc4)ccc3C2)NC(=O)NC1=O` [Example 1, (5)-5-Methyl-5-({[6-[2-(trifluoromethyl)pyrimidin-5-yl]-3,4-dihydroisoquinolin-2(1H)-yl]sulfonyl}methyl)imidazolidine-2,4-dione], the IC50 is 10.4 nM in test [1], above 10000 nM in test [2] and 29.3 nM in test [3].

`C[C@]1(CS(=O)(=O)N2CCc3cc(-c4ccc(Cl)cc4)ccc3C2)NC(=O)NC1=O` [Example 2, (5S)-5-({[6-(4-Chlorophenyl)-3,4-dihydroisoquinolin-2(1H)-yl]sulfonyl}methyl)-5-methylimidazolidine-2,4-dione]: the figures for the IC50 in test [1], in test [2] and in test [3] were 1.4 nM, 415 nM and 3.5 nM, respectively.
